Measured values taken from publication PMC11289455 (Scientific Reports, 2024).
Where two headings read alike, the source gives them in different places.

Assays:
Assay type in all cases: binding
[1] = target: T1, Norepinephrine transporter (Homo sapiens, UniProt P23975); test: SafetyScreen44: norepinephrine transporter
T1 construct: purchased Eurofins Cerep SafetyScreen44

[2] = target: T2, α1A (alpha-1A adrenergic receptor) (Homo sapiens, UniProt P35348); test: SafetyScreen44: α1A
T2 construct: purchased Eurofins Cerep SafetyScreen44
T2 sequence (P35348 1-466): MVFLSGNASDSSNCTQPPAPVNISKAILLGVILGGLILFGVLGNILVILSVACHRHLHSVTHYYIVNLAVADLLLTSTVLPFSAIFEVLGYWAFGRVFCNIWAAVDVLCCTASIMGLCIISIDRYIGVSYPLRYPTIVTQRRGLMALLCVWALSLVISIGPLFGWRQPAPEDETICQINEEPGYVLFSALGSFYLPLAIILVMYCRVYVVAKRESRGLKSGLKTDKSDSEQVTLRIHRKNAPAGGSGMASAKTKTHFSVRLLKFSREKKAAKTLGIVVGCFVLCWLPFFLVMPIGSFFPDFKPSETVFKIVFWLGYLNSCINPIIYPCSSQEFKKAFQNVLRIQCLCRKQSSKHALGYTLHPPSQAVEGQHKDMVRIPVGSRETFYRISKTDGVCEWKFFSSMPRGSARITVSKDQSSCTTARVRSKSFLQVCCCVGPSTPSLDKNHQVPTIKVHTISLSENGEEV

[3] = target: T3, H1 (histamine H1 receptor) (Homo sapiens, UniProt P35367); test: SafetyScreen44: H1
T3 construct: purchased Eurofins Cerep SafetyScreen44
T3 sequence (P35367 whole entry): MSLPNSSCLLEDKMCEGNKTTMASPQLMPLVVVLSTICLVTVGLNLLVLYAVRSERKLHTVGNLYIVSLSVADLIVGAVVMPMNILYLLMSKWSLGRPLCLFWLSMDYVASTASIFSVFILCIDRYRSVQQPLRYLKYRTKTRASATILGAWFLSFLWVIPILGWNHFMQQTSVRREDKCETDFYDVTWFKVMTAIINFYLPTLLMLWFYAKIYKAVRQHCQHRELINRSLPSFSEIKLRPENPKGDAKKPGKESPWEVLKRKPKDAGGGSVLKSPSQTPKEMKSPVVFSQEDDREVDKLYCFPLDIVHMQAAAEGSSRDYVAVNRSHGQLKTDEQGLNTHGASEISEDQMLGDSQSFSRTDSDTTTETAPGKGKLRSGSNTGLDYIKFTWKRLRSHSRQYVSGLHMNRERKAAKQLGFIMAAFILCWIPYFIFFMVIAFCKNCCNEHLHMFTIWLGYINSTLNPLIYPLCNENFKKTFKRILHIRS

[4] = target: T4, 5-HT2A (serotonin 2A receptor) (Homo sapiens, UniProt P28223); test: SafetyScreen44: 5-HT2A
T4 construct: purchased Eurofins Cerep SafetyScreen44
T4 sequence (P28223 whole entry): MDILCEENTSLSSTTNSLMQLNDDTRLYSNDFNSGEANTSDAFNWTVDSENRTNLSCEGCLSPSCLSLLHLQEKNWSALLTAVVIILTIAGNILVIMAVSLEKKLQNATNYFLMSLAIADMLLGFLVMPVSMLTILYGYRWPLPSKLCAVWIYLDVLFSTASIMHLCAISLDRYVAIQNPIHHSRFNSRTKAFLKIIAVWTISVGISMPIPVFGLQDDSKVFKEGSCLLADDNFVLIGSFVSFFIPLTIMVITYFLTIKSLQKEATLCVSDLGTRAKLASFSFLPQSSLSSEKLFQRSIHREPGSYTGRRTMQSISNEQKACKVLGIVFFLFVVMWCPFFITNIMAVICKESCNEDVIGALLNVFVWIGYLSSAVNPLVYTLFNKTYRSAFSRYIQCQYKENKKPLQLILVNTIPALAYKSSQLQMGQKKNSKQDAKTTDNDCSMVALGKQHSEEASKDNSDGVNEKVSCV

[5] = target: T5, M2 (muscarinic acetylcholine receptor M2) (Homo sapiens, UniProt P08172); test: SafetyScreen44: M2
T5 construct: purchased Eurofins Cerep SafetyScreen44
T5 sequence (P08172 1-466): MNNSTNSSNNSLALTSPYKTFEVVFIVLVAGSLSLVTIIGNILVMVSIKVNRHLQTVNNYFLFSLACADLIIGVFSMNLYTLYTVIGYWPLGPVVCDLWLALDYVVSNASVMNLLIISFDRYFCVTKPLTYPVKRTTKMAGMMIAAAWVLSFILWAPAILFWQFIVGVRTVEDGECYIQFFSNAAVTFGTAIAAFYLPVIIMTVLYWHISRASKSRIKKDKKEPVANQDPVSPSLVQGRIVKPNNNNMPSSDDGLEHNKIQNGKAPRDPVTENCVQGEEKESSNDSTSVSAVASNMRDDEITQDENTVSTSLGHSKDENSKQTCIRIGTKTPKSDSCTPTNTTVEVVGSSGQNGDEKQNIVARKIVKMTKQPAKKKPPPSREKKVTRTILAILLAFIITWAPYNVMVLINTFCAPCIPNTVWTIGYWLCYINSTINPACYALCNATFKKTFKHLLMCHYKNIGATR

[6] = target: T6, CCK1 (CCKA) (cholecystokinin 1 receptor) (Homo sapiens, UniProt P32238); test: SafetyScreen44: CCK1 (CCKA)
T6 construct: purchased Eurofins Cerep SafetyScreen44
T6 sequence (P32238 1-428): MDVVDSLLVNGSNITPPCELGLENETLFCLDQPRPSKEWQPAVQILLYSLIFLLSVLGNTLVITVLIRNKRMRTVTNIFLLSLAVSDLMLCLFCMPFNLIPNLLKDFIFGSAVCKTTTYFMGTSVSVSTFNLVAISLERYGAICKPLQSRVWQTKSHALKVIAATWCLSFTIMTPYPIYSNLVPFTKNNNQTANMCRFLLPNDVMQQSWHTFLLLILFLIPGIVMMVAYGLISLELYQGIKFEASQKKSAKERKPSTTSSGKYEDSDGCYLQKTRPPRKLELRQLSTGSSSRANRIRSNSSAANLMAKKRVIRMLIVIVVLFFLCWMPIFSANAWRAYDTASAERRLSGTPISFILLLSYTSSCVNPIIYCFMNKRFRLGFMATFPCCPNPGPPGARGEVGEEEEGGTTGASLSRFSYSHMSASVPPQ

[7] = target: T7, μ (MOP) (mu opioid receptor) (Homo sapiens, UniProt P35372); test: SafetyScreen44: μ (MOP)
T7 construct: purchased Eurofins Cerep SafetyScreen44
T7 sequence (P35372 whole entry): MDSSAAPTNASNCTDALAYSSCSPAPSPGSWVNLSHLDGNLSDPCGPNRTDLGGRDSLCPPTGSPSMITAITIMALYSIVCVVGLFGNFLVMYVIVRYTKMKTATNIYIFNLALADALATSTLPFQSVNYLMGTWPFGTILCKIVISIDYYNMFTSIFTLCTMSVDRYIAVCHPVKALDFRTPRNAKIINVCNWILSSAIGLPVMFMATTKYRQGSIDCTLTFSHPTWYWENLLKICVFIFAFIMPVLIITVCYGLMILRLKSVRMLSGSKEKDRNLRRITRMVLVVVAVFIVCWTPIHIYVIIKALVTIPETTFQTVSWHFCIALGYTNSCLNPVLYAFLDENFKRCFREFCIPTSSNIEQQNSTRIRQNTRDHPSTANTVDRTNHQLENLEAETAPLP

T1 sequence (P23975 whole entry): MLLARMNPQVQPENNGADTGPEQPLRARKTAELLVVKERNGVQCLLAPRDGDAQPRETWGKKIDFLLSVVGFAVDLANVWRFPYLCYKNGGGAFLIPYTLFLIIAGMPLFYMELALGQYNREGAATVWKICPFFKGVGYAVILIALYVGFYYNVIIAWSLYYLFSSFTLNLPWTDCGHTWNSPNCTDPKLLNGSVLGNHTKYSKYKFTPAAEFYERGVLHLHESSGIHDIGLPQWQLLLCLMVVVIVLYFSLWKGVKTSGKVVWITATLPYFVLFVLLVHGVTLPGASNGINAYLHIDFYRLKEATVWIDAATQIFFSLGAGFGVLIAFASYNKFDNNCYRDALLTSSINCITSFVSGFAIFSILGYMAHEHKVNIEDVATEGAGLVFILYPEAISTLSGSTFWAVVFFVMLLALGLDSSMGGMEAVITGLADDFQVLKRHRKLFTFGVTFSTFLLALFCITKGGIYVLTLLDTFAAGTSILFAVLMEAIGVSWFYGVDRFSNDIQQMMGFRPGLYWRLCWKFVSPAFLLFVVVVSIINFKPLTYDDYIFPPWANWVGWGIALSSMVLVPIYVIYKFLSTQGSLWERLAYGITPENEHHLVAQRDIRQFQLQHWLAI

## CC(=O)NCCCC[C@@H]1NC(=O)[C@H](Cc2c[nH]c3c(C)cccc23)NC(=O)[C@H]([C@@H](C)O)NC(=O)[C@H](CC(N)=O)NC(=O)[C@@H](NC(C)=O)C(C)(C)SSC(C)(C)[C@@H](C(=O)N[C@@H](Cc2ccc(OCCN)cc2)C(=O)N[C@@H](Cc2ccc3ccccc3c2)C(=O)NC2(C(=O)N[C@@H](CCC(=O)O)C(=O)N[C@@H](CC(N)=O)C(=O)N[C@@H](Cc3cccnc3)C(=O)N(C)CC(N)=O)CCOCC2)NC1=O [JNJ-77242113, S^3,1,S^3,6-cyclo[N-acetyl-3-sulfanyl-L-valyl-L-asparaginyl-L-threonyl-7-methyl-L-tryptophyl-N^6-acetyl-L-lysyl-3-sulfanyl-L-valyl-O-(2-aminoethyl)-L-tyrosyl-3-(naphthalen-2-yl)-L-alanyl-4-aminooxan-4-carbonyl-L-α-glutamyl-L-asparaginyl-3-(pyridin-3-yl)-L-alanyl-N^2-methylglycinamide]]
[1]; 1st run, read-out: Percent inhibition of control ligand binding, Norepinephrine transporter, 1st run
  inhibition at 10 µM: -1.3%
[1]; 2nd run, read-out: Percent inhibition of control ligand binding, Norepinephrine transporter, 2nd run
  inhibition at 10 µM: -0.6%
[1]; mean of 2 runs, read-out: Percent inhibition of control ligand binding, Norepinephrine transporter, Mean
  inhibition at 10 µM: -1%
[2]; 1st run, read-out: Percent inhibition of control ligand binding, α1A, 1st run
  inhibition at 10 µM: -4.6%
[2]; 2nd run, read-out: Percent inhibition of control ligand binding, α1A, 2nd run
  inhibition at 10 µM: 5.5%
[2]; mean of 2 runs, read-out: Percent inhibition of control ligand binding, α1A, Mean
  inhibition at 10 µM: 0.5%
[3]; 1st run, read-out: Percent inhibition of control ligand binding, H1, 1st run
  inhibition at 10 µM: -8.4%
[3]; 2nd run, read-out: Percent inhibition of control ligand binding, H1, 2nd run
  inhibition at 10 µM: -9.8%
[3]; mean of 2 runs, read-out: Percent inhibition of control ligand binding, H1, Mean
  inhibition at 10 µM: -9.1%
[4]; 1st run, read-out: Percent inhibition of control ligand binding, 5-HT2A, 1st run
  inhibition at 10 µM: 7%
[4]; 2nd run, read-out: Percent inhibition of control ligand binding, 5-HT2A, 2nd run
  inhibition at 10 µM: 3.3%
[4]; mean of 2 runs, read-out: Percent inhibition of control ligand binding, 5-HT2A, Mean
  inhibition at 10 µM: 5.1%
[5]; 1st run, read-out: Percent inhibition of control ligand binding, M2, 1st run
  inhibition at 10 µM: 0.3%
[5]; 2nd run, read-out: Percent inhibition of control ligand binding, M2, 2nd run
  inhibition at 10 µM: 2%
[5]; mean of 2 runs, read-out: Percent inhibition of control ligand binding, M2, Mean
  inhibition at 10 µM: 1.2%
[6]; 1st run, read-out: Percent inhibition of control ligand binding, CCK1 (CCKA), 1st run
  inhibition at 10 µM: -29.4%
[6]; 2nd run, read-out: Percent inhibition of control ligand binding, CCK1 (CCKA), 2nd run
  inhibition at 10 µM: -12.3%
[6]; mean of 2 runs, read-out: Percent inhibition of control ligand binding, CCK1 (CCKA), Mean
  inhibition at 10 µM: -20.8%
[7]; 1st run, read-out: Percent inhibition of control ligand binding, μ (MOP), 1st run
  inhibition at 10 µM: 5.1%
[7]; 2nd run, read-out: Percent inhibition of control ligand binding, μ (MOP), 2nd run
  inhibition at 10 µM: -4.8%
[7]; mean of 2 runs, read-out: Percent inhibition of control ligand binding, μ (MOP), Mean
  inhibition at 10 µM: 0.1%
